The values that follow come from patent US20060199816A1, “Aryl sulfonyl piperidines” (priority 2005, published 2006).

Sequence of human HSD1 (P28845 whole entry): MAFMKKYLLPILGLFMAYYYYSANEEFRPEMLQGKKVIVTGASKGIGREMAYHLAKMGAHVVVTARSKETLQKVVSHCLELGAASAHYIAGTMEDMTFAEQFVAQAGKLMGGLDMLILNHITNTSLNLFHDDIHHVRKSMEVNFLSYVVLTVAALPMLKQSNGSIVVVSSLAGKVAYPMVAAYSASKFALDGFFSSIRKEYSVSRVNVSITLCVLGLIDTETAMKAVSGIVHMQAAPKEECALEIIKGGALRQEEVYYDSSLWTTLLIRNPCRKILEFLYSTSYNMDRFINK

The target in this assay is human HSD1 (Homo sapiens, UniProt P28845). Nature of the assay: in vitro inhibition of 11β-HSD1 (cortisone to cortisol conversion, time-resolved fluorescence). Type of assay: biochemical. The note with it: purified human HSD1, cortisone substrate, NADPH, 30 min incubation, time-resolved fluorescence readout; read-out: hHSD1 IC50. The method, then:
Purified human HSD1 was diluted in 50 mM Tris-HCl, 100 mM NaCl, 0.1 mg/ml BSA, 0.02% Lubrol, 20 mM MgCl2, 10 mM glucose 6-phosphate, 0.4 mM NADPH, 60 U/ml glucose 6-phosphate dehydrogenase to a concentration of 1.5 ug/ml (Enzyme Solution). Cortisone (100 uM) in DMSO was diluted to 1 uM with 50 mM Tris-HCl, 100 mM NaCl (Substrate Solution). Testing compounds (40 uM) in DMSO was diluted 3 fold in series in DMSO and further diluted 20 fold in Substrate Solution. Enzyme Solution (10 ul/well) was added into 384 well microtiter plates followed by diluted compound solutions (10 ul/well) and mixed well. Samples were then incubated at […] for 30 min. EDTA/biotin-cortisol solution (10 ul/well) in 28 mM EDTA, 100 nM biotin-cortisol, 50 mM Tris-HCl, 100 mM NaCl was then added followed by 5 ul/well of anti-cortisol antibody (3.2 ug/ml) in 50 mM Tris-HCl, 100 mM NaCl, 0.1 mg/ml BSA and the solution was incubated at 37 degrees for 30 min. Five ul per well of Eu-conjugated anti-mouse IgG (16 nM) and APC-conjugated streptavidin (160 nM) in 50 mM Tris-HCl, 100 mM NaCl, 0.1 mg/ml BSA was added and the solution was incubated at room temperature for 2 hours. Signals were quantitated by reading time-resolved fluorescence on a Victor 5 reader (Wallac).
Percent inhibition of HSD1 activity by an agent at various concentrations was calculated by the formula % Inhibition=100*[1−(Fs−Fb)/(Ft−Fb)], where: • Fs is the fluorescence signal of the sample which included the agent, • Fb is the fluorescence signal in the absence of HSD1 and agent, • Ft is the fluorescence signal in the presence of HSD1, but no agent.
The inhibitory activities of test compounds were determined by the IC50s, or the concentration of compound that gave 50% inhibition.
For orientation: IC50 means the point on the concentration scale where inhibition reaches its midpoint. Turning to `Cc1ccccc1CNC(=O)C1CCCN(S(=O)(=O)c2ccc(F)cc2)C1` (stereo not drawn) [Example 128, 1-(4-Fluoro-benzenesulfonyl)-piperidine-3-carboxylic acid 2-methyl-benzylamide], the 50% inhibitory concentration (IC50) was found to be 3000 nM.
The value for `CC(C)CCNC(=O)[C@@H]1CCCN(S(=O)(=O)c2ccccc2Cl)C1` [Example 2, (3R)-1-(2-Chloro-benzenesulfonyl)-piperidine-3-carboxylic acid (3-methyl-butyl)-amide] was 290 nM; that for `Cc1c(Cl)cccc1S(=O)(=O)N1CCCC(C(=O)NCCCc2ccccc2)C1` (stereo not drawn) [Example 80, 1-(3-Chloro-2-methyl-benzenesulfonyl)-piperidine-3-carboxylic acid (3-phenyl-propyl)-amide] was 12000 nM; that for `O=C(NCCc1cccc(Cl)c1)C1CCCN(S(=O)(=O)c2cccc3cccnc23)C1` (stereo not drawn) [Example 157, 1-(Quinoline-8-sulfonyl)-piperidine-3-carboxylic acid [2-(3-chloro-phenyl)-ethyl]-amide] was 910 nM.
The result for `O=C(NC1CCc2ccccc21)C1CCCN(S(=O)(=O)c2ccccc2)C1` (stereo not drawn) [Example 169, 1-Benzenesulfonyl-piperidine-3-carboxylic acid indan-1-ylamide] reads 390 nM; that for `CCC(COC)NC(=O)C1CCCN(S(=O)(=O)c2ccccc2)C1` (stereo not drawn) [Example 173, 1-Benzenesulfonyl-piperidine-3-carboxylic acid (1-methoxymethyl-propyl)-amide], 940 nM.
For the molecule `Cc1ccccc1CNC(=O)C1CCCN(S(=O)(=O)c2ccccc2)C1` (stereo not drawn) [Example 175, 1-Benzenesulfonyl-piperidine-3-carboxylic acid 2-methyl-benzylamide], the IC50 was found to be 3000 nM.
As to `O=C(NC1CCCc2ccccc21)C1CCCN(S(=O)(=O)c2cccs2)C1` (stereo not drawn) [Example 187, 1-(Thiophene-2-sulfonyl)-piperidine-3-carboxylic acid (1,2,3,4-tetrahydro-naphthalen-1-yl)-amide], the IC50 was 190 nM.
The result for `O=C(NCc1cccc2ccccc12)C1CCCN(S(=O)(=O)c2ccccc2Cl)C1` (stereo not drawn) [Example 43, 1-(2-Chloro-benzenesulfonyl)-piperidine-3-carboxylic acid (naphthalen-1-ylmethyl)-amide] reads 25 nM.
As to `CC(CNC(=O)C1CCCN(S(=O)(=O)c2ccccc2Cl)C1)c1ccccc1` (stereo not drawn) [Example 50], the concentration for half-maximal inhibition (IC50) stood at 31 nM.
The result for `CC(C)c1ccc(S(=O)(=O)N2CCCC(C(=O)NC3CCCCC3)C2)cc1` (stereo not drawn) [Example 135, 1-(4-Isopropyl-benzenesulfonyl)-piperidine-3-carboxylic acid cyclohexylamide] reads 390 nM; that for `O=C(NC1CCCCC1)C1CCCN(S(=O)(=O)c2ccc3ccccc3c2)C1` (stereo not drawn) [Example 73, 1-(Naphthalene-2-sulfonyl)-piperidine-3-carboxylic acid cyclohexylamide], 47 nM.
